From patent US20080063668A1, “Nitroimidazole and terconazole composition and method” (priority 2006, published 2008)

How the values were obtained:
[1] = tested on: Gardnerella vaginalis ATCC 14018; experiment: Inhibition of bacteria growth, drug dilution tubes, anaerobic; type: cell-based; parameters: key: (+) for growth; (−) for no growth; (±) for suboptimal growth after an initial observation of growth
Protocol: (§1) Serial dilutions of tinidazole and terconazole were prepared by adding measured amounts of each substance to water (both individually and in combination). Seven bacterial organisms that are common pathogens in bacterial vaginosis were grown anaerobically in the medium as listed in Table 4 under a N2/H2/CO2 (85:5:10) head space atmosphere. [table] These cultures were diluted to a 0.5 McFarland standard prior to inoculation of drug dilution tubes. One (1) mL of the 0.5 McFarland preparation was inoculated to an anaerobically prepared test tube containing 0.8 mL of Difco anaerobic medium (DAMM) and 0.2 mL of appropriate diluted antimicrobial or antimicrobial combination for a total of 2 mL. The inoculated tubes were then incubated at 37° C. and monitored daily for growth. Growth was scored with a (+) for growth, (−) for no growth, and (±) for suboptimal growth after an initial observation of growth. Tinidazole is abbreviated as TNZ and terconazole is abbreviated as TER in Tables 5 through 11.

[2] = neutral pH; cited from earlier work
[3] = tested on: Mobiluncus mulieris ATCC 35243; experiment: Inhibition of bacteria growth, drug dilution tubes, anaerobic; type: cell-based; parameters: key to growth: (+) for growth; (−) for no growth; (±) for suboptimal growth after an initial observation of growth
Protocol: as §1

[4] = tested on: Gardnerella vaginalis ATCC 14019; experiment: as above; type: cell-based; parameters: key to growth: (+) for growth; (−) for no growth; (±) for suboptimal growth after an initial observation of growth
Protocol: as §1

## CC(C)N1CCN(c2ccc(OCC3COC(Cn4cncn4)(c4ccc(Cl)cc4Cl)O3)cc2)CC1 (stereo not drawn) [TER, cis-1-[p[[2-(2,4-dichlorophenyl)-2-(1 H-1,2,4-triazol-1-ylmethyl)-1,3-dioxolan-4-yl]methoxy]phenyl]-4-isopropylpiperazine]
[1]; TER 3.1 μg/ml, DAY 1
  growth: (+)
[1]; TER 3.1 μg/ml, DAY 2
  growth: (+)
[1]; TER 3.1 μg/ml, DAY 3
  growth: (+)
[1]; TER 3.1 μg/ml, DAY 4
  growth: (+)
[1]; TER 3.1 μg/ml, DAY 5
  growth: (+)
[1]; TER 6.2 μg/ml, DAY 1
  growth: (+)
[1]; TER 6.2 μg/ml, DAY 2
  growth: (+)
[1]; TER 6.2 μg/ml, DAY 3
  growth: (+)
[1]; TER 6.2 μg/ml, DAY 4
  growth: (+)
[1]; TER 6.2 μg/ml, DAY 5
  growth: (+)
[1]; TER 12.5 μg/ml, DAY 1
  growth: (+)
[1]; TER 12.5 μg/ml, DAY 2
  growth: (+)
[1]; TER 12.5 μg/ml, DAY 3
  growth: (+)
[1]; TER 12.5 μg/ml, DAY 4
  growth: (+)
[1]; TER 12.5 μg/ml, DAY 5
  growth: (+)
[1]; TER 25 μg/ml, DAY 1
  growth: (+)
[1]; TER 25 μg/ml, DAY 2
  growth: (+)
[1]; TER 25 μg/ml, DAY 3
  growth: (+)
[1]; TER 25 μg/ml, DAY 4
  growth: (+)
[1]; TER 25 μg/ml, DAY 5
  growth: (+)
[1]; TER 50 μg/ml, DAY 1
  growth: (+)
[1]; TER 50 μg/ml, DAY 2
  growth: (+)
[1]; TER 50 μg/ml, DAY 3
  growth: (+)
[1]; TER 50 μg/ml, DAY 4
  growth: (+)
[1]; TER 50 μg/ml, DAY 5
  growth: (+)
[1]; TER 100 μg/ml, DAY 1
  growth: (+)
[1]; TER 100 μg/ml, DAY 2
  growth: (+)
[1]; TER 100 μg/ml, DAY 3
  growth: (+)
[1]; TER 100 μg/ml, DAY 4
  growth: (+)
[1]; TER 100 μg/ml, DAY 5
  growth: (+)
[1]; TER 200 μg/ml, DAY 1
  growth: (−)
[1]; TER 200 μg/ml, DAY 2
  growth: (+)
[1]; TER 200 μg/ml, DAY 3
  growth: (+)
[1]; TER 200 μg/ml, DAY 4
  growth: (+)
[1]; TER 200 μg/ml, DAY 5
  growth: (+)
[1]; TER 400 μg/ml, DAY 1
  growth: (−)
[1]; TER 400 μg/ml, DAY 2
  growth: (−)
[1]; TER 400 μg/ml, DAY 3
  growth: (−)
[1]; TER 400 μg/ml, DAY 4
  growth: (−)
[1]; TER 400 μg/ml, DAY 5
  growth: (−)
[1]; TER 800 μg/ml, DAY 1
  growth: (−)
[1]; TER 800 μg/ml, DAY 2
  growth: (−)
[1]; TER 800 μg/ml, DAY 3
  growth: (−)
[1]; TER 800 μg/ml, DAY 4
  growth: (−)
[1]; TER 800 μg/ml, DAY 5
  growth: (−)
[2]
  solubility in water (in words): substantially insoluble
[3]; TER 3.1 μg/ml, DAY 1
  growth: (+)
[3]; TER 3.1 μg/ml, DAY 2
  growth: (+)
[3]; TER 3.1 μg/ml, DAY 3
  growth: (+)
[3]; TER 3.1 μg/ml, DAY 4
  growth: (+)
[3]; TER 3.1 μg/ml, DAY 5
  growth: (+)
[3]; TER 6.2 μg/ml, DAY 1
  growth: (+)
[3]; TER 6.2 μg/ml, DAY 2
  growth: (+)
[3]; TER 6.2 μg/ml, DAY 3
  growth: (+)
[3]; TER 6.2 μg/ml, DAY 4
  growth: (+)
[3]; TER 6.2 μg/ml, DAY 5
  growth: (+)
[3]; TER 12.5 μg/ml, DAY 1
  growth: (+)
[3]; TER 12.5 μg/ml, DAY 2
  growth: (+)
[3]; TER 12.5 μg/ml, DAY 3
  growth: (+)
[3]; TER 12.5 μg/ml, DAY 4
  growth: (+)
[3]; TER 12.5 μg/ml, DAY 5
  growth: (+)
[3]; TER 25 μg/ml, DAY 1
  growth: (+)
[3]; TER 25 μg/ml, DAY 2
  growth: (+)
[3]; TER 25 μg/ml, DAY 3
  growth: (+)
[3]; TER 25 μg/ml, DAY 4
  growth: (+)
[3]; TER 25 μg/ml, DAY 5
  growth: (+)
[3]; TER 50 μg/ml, DAY 1
  growth: (+)
[3]; TER 50 μg/ml, DAY 2
  growth: (+)
[3]; TER 50 μg/ml, DAY 3
  growth: (+)
[3]; TER 50 μg/ml, DAY 4
  growth: (+)
[3]; TER 50 μg/ml, DAY 5
  growth: (+)
[3]; TER 100 μg/ml, DAY 1
  growth: (+)
[3]; TER 100 μg/ml, DAY 2
  growth: (+)
[3]; TER 100 μg/ml, DAY 3
  growth: (+)
[3]; TER 100 μg/ml, DAY 4
  growth: (+)
[3]; TER 100 μg/ml, DAY 5
  growth: (+)
[3]; TER 200 μg/ml, DAY 1
  growth: (+)
[3]; TER 200 μg/ml, DAY 2
  growth: (+)
[3]; TER 200 μg/ml, DAY 3
  growth: (+)
[3]; TER 200 μg/ml, DAY 4
  growth: (+)
[3]; TER 200 μg/ml, DAY 5
  growth: (+)
[3]; TER 400 μg/ml, DAY 1
  growth: (−)
[3]; TER 400 μg/ml, DAY 2
  growth: (−)
[3]; TER 400 μg/ml, DAY 3
  growth: (−)
[3]; TER 400 μg/ml, DAY 4
  growth: (−)
[3]; TER 400 μg/ml, DAY 5
  growth: (−)
[3]; TER 800 μg/ml, DAY 1
  growth: (−)
[3]; TER 800 μg/ml, DAY 2
  growth: (−)
[3]; TER 800 μg/ml, DAY 3
  growth: (−)
[3]; TER 800 μg/ml, DAY 4
  growth: (−)
[3]; TER 800 μg/ml, DAY 5
  growth: (−)
[3]; Tables 6 through 11
  antibacterial activity compared with tinidazole: superior to the antibacterial compound tinidazole
[4]
  antibacterial activity compared with tinidazole: superior to the antibacterial compound tinidazole
[4]; TER 3.1 μg/ml, DAY 1
  growth: (+)
[4]; TER 3.1 μg/ml, DAY 2
  growth: (+)
[4]; TER 3.1 μg/ml, DAY 3
  growth: (+)
[4]; TER 3.1 μg/ml, DAY 4
  growth: (+)
[4]; TER 3.1 μg/ml, DAY 5
  growth: (+)
[4]; TER 6.2 μg/ml, DAY 1
  growth: (+)
[4]; TER 6.2 μg/ml, DAY 2
  growth: (+)
[4]; TER 6.2 μg/ml, DAY 3
  growth: (+)
[4]; TER 6.2 μg/ml, DAY 4
  growth: (+)
[4]; TER 6.2 μg/ml, DAY 5
  growth: (+)
[4]; TER 12.5 μg/ml, DAY 1
  growth: (+)
[4]; TER 12.5 μg/ml, DAY 2
  growth: (+)
[4]; TER 12.5 μg/ml, DAY 3
  growth: (+)
[4]; TER 12.5 μg/ml, DAY 4
  growth: (+)
[4]; TER 12.5 μg/ml, DAY 5
  growth: (+)
[4]; TER 25 μg/ml, DAY 1
  growth: (+)
[4]; TER 25 μg/ml, DAY 2
  growth: (+)
[4]; TER 25 μg/ml, DAY 3
  growth: (+)
[4]; TER 25 μg/ml, DAY 4
  growth: (+)
[4]; TER 25 μg/ml, DAY 5
  growth: (+)
[4]; TER 50 μg/ml, DAY 1
  growth: (+)
[4]; TER 50 μg/ml, DAY 2
  growth: (+)
[4]; TER 50 μg/ml, DAY 3
  growth: (+)
[4]; TER 50 μg/ml, DAY 4
  growth: (+)
[4]; TER 50 μg/ml, DAY 5
  growth: (+)
[4]; TER 100 μg/ml, DAY 1
  growth: (+)
[4]; TER 100 μg/ml, DAY 2
  growth: (+)
[4]; TER 100 μg/ml, DAY 3
  growth: (+)
[4]; TER 100 μg/ml, DAY 4
  growth: (+)
[4]; TER 100 μg/ml, DAY 5
  growth: (+)
[4]; TER 200 μg/ml, DAY 1
  growth: (+)
[4]; TER 200 μg/ml, DAY 2
  growth: (+)
[4]; TER 200 μg/ml, DAY 3
  growth: (+)
[4]; TER 200 μg/ml, DAY 4
  growth: (+)
[4]; TER 200 μg/ml, DAY 5
  growth: (+)
[4]; TER 400 μg/ml, DAY 1
  growth: (+)
[4]; TER 400 μg/ml, DAY 2
  growth: (+)
[4]; TER 400 μg/ml, DAY 3
  growth: (+)
[4]; TER 400 μg/ml, DAY 4
  growth: (+)
[4]; TER 400 μg/ml, DAY 5
  growth: (+)
[4]; TER 800 μg/ml, DAY 1
  growth: (−)
[4]; TER 800 μg/ml, DAY 2
  growth: (−)
[4]; TER 800 μg/ml, DAY 3
  growth: (−)
[4]; TER 800 μg/ml, DAY 4
  growth: (−)
[4]; TER 800 μg/ml, DAY 5
  growth: (−)
